According to patent US20180298344A1, “Realistic Humanized Model of Disease Matrix Environment for Evaluation of Therapeutic Reversal or Cell Fate” (Yale University, priority 2017, published 2018):

System: human microvascular pericytes (PC) on decellularized healthy lungs
Experiment: PC on decellularized control human lung scaffolds, TGF-β1 activation with or without nintedanib: histology, α-SMA IHC, tensile testing
Format: cell-based
Method: Lung sections were decellularized as previously described (Sun et al., Am J Physiol Lung Cell Mol Physiol, 2014, 306:L463-475; Petersen et al., Science, 2010, 329:538-541). Briefly, the lung pieces were snap frozen, sliced to 2 mm thickness, and rinsed with PBS containing sodium nitroprusside (SNP). The slices were decellularized with 8 mM CHAPS (Sigma-Aldrich, St Louis, Mo., USA), 1M NaCl, and 25 mM EDTA at 37° C. overnight. The slices were treated with 90 U/mL benzonase nuclease (Sigma) for 1 hour and stored in PBS containing 10% penicillin/streptomycin and 2% Gentamicin at 4° C. until the time of culture. For solubilization, the tissue slices were rinsed with PBS, frozen, and lyophilized. The lyophilized pieces were ground to a fine powder using a tissue grinder and digested with 1 mg/mL pepsin (Sigma) in 0.1 M HCl for 72 hours (DeQuach et al., PLoS One, 2010, 5:e13039).
Samples were fixed in 4% paraformaldehyde for 1 hour, dehydrated, embedded in paraffin, and sectioned into 5μm thick slices. Sections were stained with Masson's Trichrome, picrosirius red, and α-smooth muscle actin (SMA) by the Yale Histology Core Facility.
Decellularized lung samples from control and IPF subjects, as well as polyacrylamide hydrogels of varying crosslinking density, were analyzed using an Instron 5848 with a 10N load cell. Elongation was assessed by cross-head displacement. Strips of 10 mm (length)×1 (width) mm, measured with a digital caliper were affixed to grips and pulled until failure at a strain rate of 1%/sec. For lung samples, parenchymal regions were analyzed, and the pleura was avoided. Hydration of samples with PBS was maintained before and during the mechanical conditioning. Using sample dimensions, engineering stress and strain were calculated using the following equations:
σ=stress, F=Force, A0=initial area, ε=strain, lf=final length, l0=initial length. The Young's Modulus for the tissue was determined by dividing the engineering stress σ, by the engineering strain ε at 20% strain, within the normal range of lung inflation. Mechanical properties of the polyacrylamide hydrogels were also analyzed using a modified model of the Hertz equation using a custom made apparatus (FIG. 3) (Lauridsen et al., Technology, 2014, 2:133).
For short term (7 day) differentiation studies, PC (passage 3-7) were seeded on healthy or IPF lung tissue slices, polyacrylamide hydrogels, or 25 mm glass coverslips (VWR) at 100×10^3 cells per sample and activated with control media (non-activated), or 1 ng/mL TGF-β1 (PeproTech, Rocky Hill, N.J., USA) for 7 days (18, 19). For bleomycin activation, the cells were activated with 1 μg/mL bleomycin sulfate (Cayman Chemical, Ann Arbor, Mich.) for 1 day and the media was replaced with non-activated media for the remaining 6 days (Sava et al., Microcirculation, 2015, 22:54-67; Sterling et al., J Bio Chem, 1983, 258:14438-14444). TGF-β1 and bleomycin concentrations were based on reports consistent with activation of fibroblasts (Sava et al., Microcirculation, 2015, 22:54-67; Maroni and Davis, Bio Reprod, 2012, 87:127). Treatment with CCG-1423 (Sigma) was performed at day 0 for the full 7 days, and labeled as early treatment, or at day 7 and performed for 7 days, and labeled as late treatment. […]

Compound | matrix density and collagen I content (nintedanib, TGF-β1-activated PC on decellularized healthy lung) | reduction in the number of PC expressing α-SMA (nintedanib, TGF-β1-activated PC on decellularized healthy lung, IHC, P<0.0001) [%] | elastic modulus of the scaffold (nintedanib, P=0.44 compared with control lung, P=0.001 compared with TGF-β1 without nintedanib) | ECM density and collagen I crosslinking (28 days of TGF-β1, Masson's trichrome and Picosirius red staining) | increase in the elastic modulus of the scaffold (28 days of TGF-β1, PC on decellularized healthy lung, P=0.001) [fold]
COC(=O)c1ccc2c(c1)NC(=O)/C2=C(\Nc1ccc(N(C)C(=O)CN2CCN(C)CC2)cc1)c1ccccc1 [nintedanib] | reduction | 90.1 | reversion of the elastic modulus to baseline levels | – | –
TGF-β1: transforming growth factor (TGF)-β1, fibrotic activator, used at 1 ng/mL | – | – | – | increased | 8.6
